The values below come from patent US8772343B2, “Chemical compounds” (Pfizer Limited, priority 2010, dated 2014).

Molecules are shown by their SMILES. Counter-ions that a name gives are not always drawn.

In the test the target is T1, Nav1.7 (or SCN9A) channel (Homo sapiens, UniProt Q15858).
T1 construct: expressed in transfected cells
T1 sequence (Q15858 whole entry): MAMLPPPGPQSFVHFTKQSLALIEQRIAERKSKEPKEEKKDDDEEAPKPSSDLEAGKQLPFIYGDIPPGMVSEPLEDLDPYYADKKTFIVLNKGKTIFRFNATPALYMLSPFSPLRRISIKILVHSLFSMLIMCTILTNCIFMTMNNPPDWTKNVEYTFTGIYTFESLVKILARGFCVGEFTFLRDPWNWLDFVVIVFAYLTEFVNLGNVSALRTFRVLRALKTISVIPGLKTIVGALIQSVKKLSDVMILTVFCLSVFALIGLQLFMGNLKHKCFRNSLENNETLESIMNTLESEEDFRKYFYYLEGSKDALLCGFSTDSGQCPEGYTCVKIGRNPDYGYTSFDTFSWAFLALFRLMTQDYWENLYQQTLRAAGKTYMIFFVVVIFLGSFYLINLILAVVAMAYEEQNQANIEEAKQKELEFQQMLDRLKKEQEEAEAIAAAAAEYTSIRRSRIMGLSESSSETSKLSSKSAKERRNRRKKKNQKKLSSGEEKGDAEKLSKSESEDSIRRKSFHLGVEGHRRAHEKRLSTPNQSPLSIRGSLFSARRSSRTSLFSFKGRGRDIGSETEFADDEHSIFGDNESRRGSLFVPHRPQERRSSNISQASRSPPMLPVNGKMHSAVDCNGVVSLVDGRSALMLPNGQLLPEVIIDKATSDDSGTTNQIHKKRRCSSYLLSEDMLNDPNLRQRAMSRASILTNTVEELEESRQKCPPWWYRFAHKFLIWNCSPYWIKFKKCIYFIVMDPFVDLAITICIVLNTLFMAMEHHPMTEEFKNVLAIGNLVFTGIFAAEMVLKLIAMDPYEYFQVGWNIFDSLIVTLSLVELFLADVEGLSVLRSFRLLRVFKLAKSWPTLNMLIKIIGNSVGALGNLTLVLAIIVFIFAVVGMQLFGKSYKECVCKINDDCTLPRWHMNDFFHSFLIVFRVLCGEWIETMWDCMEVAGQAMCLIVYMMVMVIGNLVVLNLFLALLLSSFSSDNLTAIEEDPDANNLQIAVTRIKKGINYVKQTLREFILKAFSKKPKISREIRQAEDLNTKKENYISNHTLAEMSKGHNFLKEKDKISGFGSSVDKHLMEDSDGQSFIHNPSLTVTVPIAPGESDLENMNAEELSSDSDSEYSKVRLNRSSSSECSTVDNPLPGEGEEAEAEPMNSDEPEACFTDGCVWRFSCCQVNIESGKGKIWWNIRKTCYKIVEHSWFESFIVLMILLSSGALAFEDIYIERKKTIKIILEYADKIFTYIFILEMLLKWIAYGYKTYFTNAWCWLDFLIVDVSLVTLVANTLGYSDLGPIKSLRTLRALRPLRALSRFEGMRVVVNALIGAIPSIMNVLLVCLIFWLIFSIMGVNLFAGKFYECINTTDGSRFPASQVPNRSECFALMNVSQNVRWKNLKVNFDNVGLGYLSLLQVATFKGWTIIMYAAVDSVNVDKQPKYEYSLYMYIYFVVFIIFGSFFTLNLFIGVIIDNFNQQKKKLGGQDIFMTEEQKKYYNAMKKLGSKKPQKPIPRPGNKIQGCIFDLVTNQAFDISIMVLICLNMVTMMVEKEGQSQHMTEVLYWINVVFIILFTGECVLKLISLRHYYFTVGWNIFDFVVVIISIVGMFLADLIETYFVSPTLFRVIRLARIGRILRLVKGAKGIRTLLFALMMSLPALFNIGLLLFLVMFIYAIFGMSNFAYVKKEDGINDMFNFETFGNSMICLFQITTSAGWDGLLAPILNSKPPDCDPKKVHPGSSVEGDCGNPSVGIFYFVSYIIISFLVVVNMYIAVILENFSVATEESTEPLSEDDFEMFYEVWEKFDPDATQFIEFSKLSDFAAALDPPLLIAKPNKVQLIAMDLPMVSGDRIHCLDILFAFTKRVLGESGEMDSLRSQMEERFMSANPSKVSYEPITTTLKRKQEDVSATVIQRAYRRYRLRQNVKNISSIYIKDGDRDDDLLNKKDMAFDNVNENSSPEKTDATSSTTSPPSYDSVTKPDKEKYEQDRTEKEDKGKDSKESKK
In words: Nav1.7 PatchXpress automated whole-cell electrophysiology in HEK cells expressing hSCN9A. The following applies: estimated IC50 from single point data, PatchXpress assay, held at V1/2 of inactivation, read-out: Nav1.7 EIC50. It counts as cell-based. The method, then: The ability of the compounds of formula (I) to block the Nav1.7 (or SCN9A) channel were measured using the assay described below.
Human Embryonic Kidney (HEK) cells were transfected with an hSCN9A construct using lipofectamine reagent (Invitrogen), using standard techniques. Cells stably expressing the hSCN9A constructs were identified by their resistance to G-418 (400 μg/ml). Clones were screened for expression using the whole-cell voltage-clamp technique.
HEK cells stably transfected with hSCN9A were maintained in DMEM medium supplemented with 10% heat-inactivated fetal bovine serum and 400 μg/ml G-418 in an incubator at 37° C. with a humidified atmosphere of 10% CO2. For HTS, cells were harvested from flasks by trypsinization and replated in an appropriate multi-well plate (typically 96 or 384 wells/plate) such that confluence would be achieved within 24 hours of plating. For electrophysiological studies, cells were removed from the culture flask by brief trypsinization and re-plated at low density onto glass cover slips. Cells were typically used for electrophysiological experiments within 24 to 72 hours after plating.
Cover slips containing HEK cells expressing hSCN9A were placed in a bath on the stage of an inverted microscope and perfused (approximately 1 ml/minutes) with extracellular solution of the following composition: 138 mM NaCl, 2 mM CaCl2, 5.4 mM KCl, 1 mM MgCl2, 10 mM glucose, and 10 mM HEPES, pH 7.4, with NaOH. […] The osmolarity of the extracellular and intracellular solutions was 300 mOsm/kg and 295 mOsm/kg, respectively. All recordings were made at room temperature (22-24° C.) using AXOPATCH 200B amplifiers and PCLAMP software (Axon Instruments, Burlingame, Calif.).
hSCN9A currents in HEK cells were measured using the whole-cell configuration of the patch-clamp technique (Hamill et al., 1981). Uncompensated series resistance was typically 2 to 5 mega ohms and >85% series resistance compensation was routinely achieved. As a result, voltage errors were negligible and no correction was applied. Current records were acquired at 20 to 50 KHz and filtered at 5 to 10 KHz.
HEK cells stably transfected with hSCN9A were viewed under Hoffman contrast optics and placed in front of an array of flow pipes emitting either control or compound-containing extracellular solutions. All compounds were dissolved in dimethyl sulfoxide to make 10 mM stock solutions, which were then diluted into extracellular solution to attain the final concentrations desired. […] The voltage-dependence of inactivation was determined by applying a series of depolarizing prepulses (8 sec long in 10 mV increments) from a negative holding potential. The voltage was then immediately stepped to 0 mV to assess the magnitude of the sodium current. Currents elicited at 0 mV were plotted as a function of prepulse potential to allow estimation of the voltage at which 50% of the channels were inactivated (midpoint of inactivation or V1/2). Compounds were tested for their ability to inhibit hSCN9A sodium channels by activating the channel with a 20 msec voltage step to 0 mV following an 8 second conditioning prepulse to the empirically determined V1/2. Compound effect (% inhibition) was determined by difference in current amplitude before and after application of test compounds. For ease of comparison, “estimated IC-50” (EIC50) values were calculated from single point electrophysiology data by the following equation, (tested concentration, uM)×(100-% inhibition/% inhibition). Inhibition values<20% and >80% were excluded from the calculation.
Electrophysiological assays were conducted with PatchXpress 7000 hardware and associated software (Molecular Devices Corp). All assay buffers and solutions were identical to those used in conventional whole-cell voltage clamp experiments described above. hSCN9A cells were grown as above to 50%-80% confluency and harvested by trypsinization. […]
Regarding `COc1cc(Cl)ccc1Oc1ccc(C(=O)NS(C)(=O)=O)cc1-c1cccnc1OC` [Example 1, 4-(4-chloro-2-methoxyphenoxy)-3-(2-methoxypyridin-3-yl)-N-(methylsulfonyl)benzamide diethylamine salt], the IC50 is 2.7 µM.
As for `COc1ncccc1-c1cc(C(=O)NS(C)(=O)=O)ccc1Oc1ccc(OCC(C)C)nc1` [Example 2, 4-[(6-isobutoxypyridin-3-yl)oxy]-3-(2-methoxypyridin-3-yl)-N-(methylsulfonyl)benzamide diethylamine salt], the figure is 0.22 µM; as for `COc1cccnc1-c1cc(C(=O)NS(C)(=O)=O)ccc1Oc1ccc(Cl)cc1` [Example 3, 4-(4-chlorophenoxy)-3-(3-methoxypyridin-2-yl)-N-(methylsulfonyl)benzamide], 0.99 µM; as for `COc1cc(Cl)ccc1Oc1cc(F)c(C(=O)NS(C)(=O)=O)cc1-c1cccnc1OC` [Example 4, 4-(4-chloro-2-methoxyphenoxy)-2-fluoro-5-(2-methoxypyridin-3-yl)-N-(methylsulfonyl)benzamide], 4.5 µM.
Then `COc1ncccc1-c1cc(C(=O)NS(C)(=O)=O)ccc1Oc1ccccc1` [Example 5, 3-(2-methoxypyridin-3-yl)-N-(methylsulfonyl)-4-phenoxybenzamide], with 0.9 µM; and `COc1ncccc1-c1cc(C(=O)NS(=O)(=O)C2CC2)ccc1Oc1ccccc1` [Example 6, N-(cyclopropylsulfonyl)-3-(2-methoxypyridin-3-yl)-4-phenoxybenzamide], with 1.3 µM; and `COc1ncccc1-c1cc(C(=O)NS(C)(=O)=O)ccc1Oc1cnc(OC(C)C)c(Cl)c1` [Example 7, 4-[(5-Chloro-6-isopropoxypyridin-3-yl)oxy]-3-(2-methoxypyridin-3-yl)-N-(methylsulfonyl)benzamide], with 0.066 µM.
As for `CCOc1ncccc1-c1cc(C(=O)NS(C)(=O)=O)ccc1Oc1ccc(Cl)cc1` [Example 8, 4-(4-Chlorophenoxy)-3-(2-ethoxypyridin-3-yl)-N-(methylsulfonyl)benzamide], the figure is 0.049 µM.
`CS(=O)(=O)NC(=O)c1ccc(Oc2ccc(Cl)cc2)c(-c2ccc(F)cc2)c1` [Example 9, 6-(4-Chlorophenoxy)-4′-fluoro-N-(methylsulfonyl)biphenyl-3-carboxamide]: the IC50 was 0.11 µM.
Consider `CS(=O)(=O)NC(=O)c1ccc(Oc2ccc(Cl)cc2)c(-c2cc[nH]n2)c1` [Example 10, 4-(4-Chlorophenoxy)-N-(methylsulfonyl)-3-(1H-pyrazol-3-yl)benzamide], for which the IC50 was 0.94 µM.
As for `CCOc1ccc(-c2cc(C(=O)NS(C)(=O)=O)ccc2Oc2ccc(Cl)cc2)cc1` [Example 12, 6-(4-chlorophenoxy)-4′-ethoxy-N-(methylsulfonyl)-biphenyl-3-carboxamide], the figure is 3.5 µM; as for `Cc1n[nH]c(C)c1-c1cc(C(=O)NS(C)(=O)=O)ccc1Oc1ccc(Cl)cc1` [Example 14, 4-(4-chlorophenoxy)-3-(3,5-dimethyl-1H-pyrazol-4-yl)-N-(methylsulfonyl)benzamide], more than 3 µM; as for `COc1ccccc1-c1cc(C(=O)NS(C)(=O)=O)ccc1Oc1ccc(Cl)cc1` [Example 15, 6-(4-chlorophenoxy)-2′-methoxy-N-(methylsulfonyl)-biphenyl-3-carboxamide], 0.18 µM.
In the case of `COc1ccc(-c2cc(C(=O)NS(C)(=O)=O)ccc2Oc2ccc(Cl)cc2)cn1` [Example 16, 4-(4-chlorophenoxy)-3-(6-methoxypyridin-3-yl)-N-(methylsulfonyl)benzamide], the IC50 is 0.91 µM.
Then `CS(=O)(=O)NC(=O)c1ccc(Oc2ccc(Cl)cc2)c(-c2ccccc2F)c1` [Example 18, 6-(4-chlorophenoxy)-2′-fluoro-N-(methylsulfonyl)-biphenyl-3-carboxamide], with 0.57 µM; and `CCOc1cccc(-c2cc(C(=O)NS(C)(=O)=O)ccc2Oc2ccc(Cl)cc2)c1` [Example 20, 6-(4-chlorophenoxy)-3′-ethoxy-N-(methylsulfonyl)-biphenyl-3-carboxamide], with 0.82 µM.
